Where “and” joins values, the source holds several entries; their conditions need not be identical. Equal values may be shown once.
Experiments:
[1] = biological target: T1, α-Glucosidase type 1 from baker's yeast (Saccharomyces cerevisiae, UniProt P53341); test: biochemical; conditions: IC50 α-Glucosidase, mean ± SD, triplicate; tested at 1, 5, 10, 25, 50 µM
T1 construct: purchased Sigma Aldrich (Pty) Ltd. G5003
Procedure: The assay was conducted in triplicate following a method described in our previous study. […] After pre-incubation, 17 µL of 2 mM PNP-G was added. The absorbances were recorded in a 96-well microplate at 400 nm using an Elisa plate reader (Varioskan Flash, ThermoFischer Scientific, Vantaa, Finland). The average values obtained from the readings were used to determine the IC50 and standard deviation values using a GraphPad Prism software (Version 8, GraphPad Software Inc., San Diego, CA, USA). The average values obtained from the absorbance readings were used to determine the IC50 and standard deviation values in GraphPad prism from nonlinear regression dose–response curves.

human α-amylase = biological target: T2, human α-amylase (Homo sapiens, UniProt P04746); test: α-amylase inhibitor screening kit assay; assay type: biochemical; conditions: mean ± SD, triplicate; tested at 1, 5, 10, 25, 50 µM
T2 construct: purchased Abcam ab283391
T2 sequence (P04746 16-511): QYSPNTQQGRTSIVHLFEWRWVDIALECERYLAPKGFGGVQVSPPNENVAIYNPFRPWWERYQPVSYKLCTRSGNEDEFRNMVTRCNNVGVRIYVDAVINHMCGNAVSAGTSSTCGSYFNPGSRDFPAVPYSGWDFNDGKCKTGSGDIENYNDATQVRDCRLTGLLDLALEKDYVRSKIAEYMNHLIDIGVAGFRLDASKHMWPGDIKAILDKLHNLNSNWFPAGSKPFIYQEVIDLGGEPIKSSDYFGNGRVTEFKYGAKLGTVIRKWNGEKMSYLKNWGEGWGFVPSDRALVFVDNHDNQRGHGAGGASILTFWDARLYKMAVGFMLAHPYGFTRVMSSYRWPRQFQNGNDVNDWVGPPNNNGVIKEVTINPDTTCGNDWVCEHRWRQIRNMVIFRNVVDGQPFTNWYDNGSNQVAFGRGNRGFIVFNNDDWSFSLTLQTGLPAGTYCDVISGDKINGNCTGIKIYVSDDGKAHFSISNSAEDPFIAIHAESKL
Procedure: The α-amylase assay was performed in triplicate, using a 96-well plate following the procedure recommended by the manufacturer as outlined in the α-amylase inhibitor Screening Kit (Catalogue No. ab283391; Abcam). […] The average values obtained from the absorbance readings were used to determine the IC50 and standard deviation values in GraphPad prism from nonlinear regression dose–response curves.

[2] = DPPH radical scavenging assay; conditions: mean ± SD; 45 min in the dark; 512 nm
Procedure: The DPPH radical scavenging assay was conducted following the procedure described in our previous study. The test compounds and ascorbic acid at various concentrations (ranging from 0 µM to 50 µM) in DMSO were mixed with a solution of DPPH (0.20 mM) in methanol and incubated in the dark for 45 min. Five absorbance readings were recorded at 512 nm using an Elisa plate reader (Varioskan Flash, ThermoFisher Scientific, Vantaa, Finland). The experiment was carried out in triplicate, and averaged values from the absorbance readings were used to determine the IC50 and standard deviation values in GraphPad prism from nonlinear regression dose–response curves.

[3] = NO free radical scavenging assay (sodium nitroprusside/Griess); conditions: mean ± SD; sodium nitroprusside, Griess reagent, 550 nm
Procedure: The assay was conducted following the method described in our previous study. A mixture of 10 mM sodium nitroprusside (20 µL), phosphate buffer (5 µL) and the test compound (5 µL) were incubated at 25 °C in a 96-well plate for 2.5 h. After incubation, 20 µL of Griess reagent (1.00 g of sulfanilic acid + 0.10 g naphthylethylene diamine dihydrochloride) was added to the previous mixture and allowed to stand for 30 min. […] Each experiment was performed in triplicate, and the average was taken. The average obtained from the absorbance readings was used to calculate the IC50 values in GraphPad prism from nonlinear regression dose–response curves.

[4] = tested on: NO generated from nitric oxide synthase (NOS); test: Inhibitory activity against NO generated from NOS (EnzyChrom kit); assay type: biochemical; conditions: mean ± SD, 1-50 µM
Procedure: A nitric oxide synthase (NOS) assay was performed following the procedure recommended by the manufacturer as outlined in the screening kit (Catalogue No. EINO-100; EnzyChrom). Various concentrations (1, 5, 10, 25 and 50 µM) of the compounds 3a, 3c, 3f, 3i, 3l, 3n and 3p and the reference standard, ascorbic acid, were prepared. The enzyme solution (12.5 U/mL NOS, 10 µL), assay buffer (25 µL) and test samples (5 µL) were incubated at room temperature for 15 min. After pre-incubation, 10 µL of reaction mix was added and incubated at 37 °C for 60 min. A 200 µL quantity of NO detection reagent was added, the detection reaction was run at 37 °C for 60 min, and absorbance was determined at a wavelength of 540 nm using an Elisa plate reader (Varioskan Flash, ThermoFisher Scientific, Vantaa, Finland). The average of three readings was used to calculate the NOS percentage inhibition using the following formula: % Inhibition=1−ΔOD Test Compd/ΔOD No Inhibitor ×100%
The IC50 values and standard deviation values were determined from nonlinear regression dose–response curve and compared with the results in GraphPad prism.

[5] = biological target: superoxide dismutase (SOD); test: Superoxide dismutase (SOD) inhibitory assay (SOD assay kit-WST); assay type: biochemical; conditions: duplicate; 1-50 µM; 25 °C, 30 min; read-out: IC50 SOD inhibition
Procedure: The antioxidant activity of the compounds 3a, 3c, 3f, 3i, 3l, 3n and 3p against superoxide radicals was assessed via enzymatic assay in vitro using the SOD assay kit-WST according to the manufacturer’s instructions (Sigma-Aldrich®). The reaction mixtures in the SOD kit were combined with 20 μL of working solution of the samples in a 96-well plate. Plates were gently shaken and then incubated at 25 °C for 30 min. The reference positive control, diphenyleneiodonium (DPI), and the compounds were tested at 01, 5, 10, 25 and 50 µM in duplicates. The inhibition activity of SOD on the reaction of […] generated the superoxide with a tetrazolium salt, which was then determined by measuring the absorbance of the mixtures at a wavelength of 450 nm using an Elisa plate reader (Varioskan Flash, ThermoFisher Scientific, Vantaa, Finland). The SOD activity values obtained used to calculate the percentage of inhibition. % SOD activity=ODx− ODy/ODx ×100% where ODx is the absorbance of the blank (untreated SOD) and ODy is the absorbance of the sample (treated SOD). All tests were performed in duplicate.

[6] = tested on: lung cancer (A549) cell line; test: MTT cytotoxicity assay, A549; conditions: for Cell viability percentage, A549: Table S3; for IC50: Homo sapiens, A549, read-out: IC50 A549
Procedure: (§1) Cells were cultured in sterile Dulbecco’s Minimal Essential Medium (DMEM, Gibco) supplemented with 10% fetal bovine serum (FBS) and 1% penicillin-streptomycin solution. […] Cell counting was carried out using a handheld automated cell counter (Scapter 3.0™, Merck, Burlington, MA, USA) and seeded (1 × 10^4 cells/well) into a 96-well plate. After 24 h, the cells were treated with different concentrations (1, 5, 10, 25 and 50 µM) of the test compounds and reference standards prepared in DMEM. The MTT solution (20 μL) prepared in PBS (5 mg/mL) was added to all the wells, and the plates were incubated for 4 h, followed by 1 h incubation with 100 µL of dimethyl sulfoxide (DMSO) to dissolve the formazan crystals. Untreated cells and 5% DMSO were included in the experiment as negative controls. All experiments were performed in triplicate. The plates were read at 570 nm at a reference wavelength of 630 nm using an ELISA plate reader (Varioskan Flash, ThermoFisher Scientific, Vantaa, Finland). The percentage of cell viability was calculated using the following formula, Cell viability %=At/Ab×100 where At represents the absorbance value of test compound and Ab the absorbance value of the blank. […] The data were expressed as means ± SD.

[7] = tested on: breast cancer (MCF-7) cell line; test: MTT cytotoxicity assay, MCF-7; conditions: for Cell viability percentage, MCF-7: Table S2; for IC50: Homo sapiens, MCF7, read-out: IC50 MCF-7
Procedure: as §1

[8] = MTT cytotoxicity assay, HEK293-T; conditions: human, HEK293-T cells
[9] = tested on: human embryonic kidney (HEK293-T) cell line; test: MTT cytotoxicity assay, HEK293-T; conditions: Homo sapiens, HEK-293T, read-out: IC50 Hek293-T

T1 sequence (P53341 whole entry): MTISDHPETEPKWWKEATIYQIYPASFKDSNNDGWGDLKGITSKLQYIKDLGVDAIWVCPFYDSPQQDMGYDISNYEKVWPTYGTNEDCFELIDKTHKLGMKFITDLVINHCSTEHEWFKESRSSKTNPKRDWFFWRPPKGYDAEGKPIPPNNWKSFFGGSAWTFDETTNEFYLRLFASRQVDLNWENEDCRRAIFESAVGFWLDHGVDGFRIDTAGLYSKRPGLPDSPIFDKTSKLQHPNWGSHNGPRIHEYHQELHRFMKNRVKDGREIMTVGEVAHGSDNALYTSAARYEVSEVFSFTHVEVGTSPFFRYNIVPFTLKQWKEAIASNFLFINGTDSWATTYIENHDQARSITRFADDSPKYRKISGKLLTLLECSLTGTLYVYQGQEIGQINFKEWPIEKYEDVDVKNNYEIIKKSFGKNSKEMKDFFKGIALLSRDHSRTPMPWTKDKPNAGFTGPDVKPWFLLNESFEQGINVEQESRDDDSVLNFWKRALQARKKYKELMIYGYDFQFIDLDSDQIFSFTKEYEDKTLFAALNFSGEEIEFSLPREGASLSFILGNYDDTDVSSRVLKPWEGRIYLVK

CC1=[N+]([O-])C(c2ccccc2)Nc2ccc(Br)cc21 (stereo not shown) [Compound 3a]
IC50 [1]: 1.08 ± 0.02 µM | IC50 (human α-amylase): 5.33 ± 0.01 µM | IC50 [2]: 4.74 ± 0.027 µM | IC50 [3]: 27.34 ± 0.04 µM | IC50 [4]: 5.24 ± 0.002 µM | IC50 [5]: 15 ± 10 µM | melting point: 158 to 160 °C | Cell viability percentage, A549 ([6]; Conc. 1 (µM per method)): 66,8354% | Cell viability percentage, A549 ([6]; Conc. 5 (µM per method)): 57,3068% | Cell viability percentage, A549 ([6]; Conc. 10 (µM per method)): 54,0443% | Cell viability percentage, A549 ([6]; Conc. 25 (µM per method)): 41,1182% | Cell viability percentage, A549 ([6]; Conc. 50 (µM per method)): 30,5771% | IC50 [6]: 15.84 ± 0.07 µM | Cell viability percentage, MCF-7 ([7]; Conc. 1 (µM per method)): 26,2641% | Cell viability percentage, MCF-7 ([7]; Conc. 5 (µM per method)): 26,1144% | Cell viability percentage, MCF-7 ([7]; Conc. 10 (µM per method)): 23,187% | Cell viability percentage, MCF-7 ([7]; Conc. 25 (µM per method)): 22,3387% | Cell viability percentage, MCF-7 ([7]; Conc. 50 (µM per method)): 19,6607% | IC50 [7]: 10.83 ± 0.09 µM | viability at 1 µM [8]: 69.4% | viability at 5 µM [8]: 63.4% | viability at 10 µM [8]: 57.8% | viability at 25 µM [8]: 55.1% | viability at 50 µM [8]: 19% | IC50 [9]: 40.18 ± 0.02 µM

CC1=[N+]([O-])C(c2ccc(F)cc2)Nc2c(Br)cc(I)cc21 (stereo not shown) [Compound 3n]
IC50 [1]: 43.23 ± 0.05 µM | IC50 (human α-amylase): 4.71 ± 0.01 µM | IC50 [2]: 6.84 ± 0.009 µM | IC50 [3]: 0.88 ± 0.004 µM | IC50 [4]: 3.5 ± 0.01 µM | IC50 [5]: 6.2 ± 0.12 µM | melting point: 125 to 127 °C | Cell viability percentage, A549 ([6]; Conc. 1 (µM per method)): 79,9753% | Cell viability percentage, A549 ([6]; Conc. 5 (µM per method)): 73,2703% | Cell viability percentage, A549 ([6]; Conc. 10 (µM per method)): 62,0205% | Cell viability percentage, A549 ([6]; Conc. 25 (µM per method)): 43,4807% | Cell viability percentage, A549 ([6]; Conc. 50 (µM per method)): 30,3521% | IC50 [6]: 17.22 ± 0.07 µM | Cell viability percentage, MCF-7 ([7]; Conc. 1 (µM per method)): 34,8969% | Cell viability percentage, MCF-7 ([7]; Conc. 5 (µM per method)): 33,2335% | Cell viability percentage, MCF-7 ([7]; Conc. 10 (µM per method)): 31,9528% | Cell viability percentage, MCF-7 ([7]; Conc. 25 (µM per method)): 31,7365% | Cell viability percentage, MCF-7 ([7]; Conc. 50 (µM per method)): 30,1896% | IC50 [7]: 14.79 ± 0.1 µM | viability at 1 µM [8]: 75.1% | viability at 5 µM [8]: 70.1% | viability at 10 µM [8]: 54.1% | viability at 25 µM [8]: 39.6% | viability at 50 µM [8]: 20.5% | IC50 [9]: 32.42 ± 0.06 µM

COc1ccc(C2Nc3c(I)cc(Br)cc3C(C)=[N+]2[O-])cc1 (stereo not shown) [Compound 3l]
IC50 [1]: 0.92 µM and 1.04 µM | IC50 (human α-amylase): 54.18 ± 0.01 µM | IC50 [2]: 27.7 ± 0.04 µM | IC50 [3]: 67.81 ± 0.004 µM | IC50 [4]: 1.06 ± 0.005 µM | IC50 [5]: 5.6 ± 0.17 µM | melting point: 153 to 155 °C | Cell viability percentage, A549 ([6]; Conc. 1 (µM per method)): 89,6276% | Cell viability percentage, A549 ([6]; Conc. 5 (µM per method)): 82,1465% | Cell viability percentage, A549 ([6]; Conc. 10 (µM per method)): 60,333% | Cell viability percentage, A549 ([6]; Conc. 25 (µM per method)): 45,5732% | Cell viability percentage, A549 ([6]; Conc. 50 (µM per method)): 45,4944% | IC50 [6]: 16.34 ± 0.06 µM | Cell viability percentage, MCF-7 ([7]; Conc. 1 (µM per method)): 66,3742% | Cell viability percentage, MCF-7 ([7]; Conc. 5 (µM per method)): 55,5856% | Cell viability percentage, MCF-7 ([7]; Conc. 10 (µM per method)): 51,5919% | Cell viability percentage, MCF-7 ([7]; Conc. 25 (µM per method)): 35,1896% | Cell viability percentage, MCF-7 ([7]; Conc. 50 (µM per method)): 17,5102% | IC50 [7]: 18.12 ± 0.1 µM | viability at 1 µM [8]: 80.4% | viability at 5 µM [8]: 69.4% | viability at 10 µM [8]: 59.2% | viability at 25 µM [8]: 25.5% | viability at 50 µM [8]: 19.7% | IC50 [9]: 32.39 ± 0.17 µM

COc1ccc(C2Nc3c(Br)cc(I)cc3C(C)=[N+]2[O-])cc1 (stereo not shown) [Compound 3p]
IC50 [1]: 0.78 ± 0.05 µM | IC50 (human α-amylase): 73.66 ± 0.02 µM | IC50 [2]: 60.03 ± 0.014 µM | IC50 [3]: 5.46 ± 0.004 µM | IC50 [4]: 15.51 ± 0.009 µM | IC50 [5]: 8.3 ± 0.04 µM | melting point: 173 to 174 °C | Cell viability percentage, A549 ([6]; Conc. 1 (µM per method)): 45,0433% | Cell viability percentage, A549 ([6]; Conc. 5 (µM per method)): 44,7771% | Cell viability percentage, A549 ([6]; Conc. 10 (µM per method)): 43,6627% | Cell viability percentage, A549 ([6]; Conc. 25 (µM per method)): 42,5649% | Cell viability percentage, A549 ([6]; Conc. 50 (µM per method)): 39,3879% | IC50 [6]: 12.24 ± 0.02 µM | Cell viability percentage, MCF-7 ([7]; Conc. 1 (µM per method)): 72,4624% | Cell viability percentage, MCF-7 ([7]; Conc. 5 (µM per method)): 70,8112% | Cell viability percentage, MCF-7 ([7]; Conc. 10 (µM per method)): 59,2339% | Cell viability percentage, MCF-7 ([7]; Conc. 25 (µM per method)): 43,212% | Cell viability percentage, MCF-7 ([7]; Conc. 50 (µM per method)): 27,8817% | IC50 [7]: 13.47 ± 0.06 µM | viability at 1 µM [8]: 83.4% | viability at 5 µM [8]: 81.4% | viability at 10 µM [8]: 75.8% | viability at 25 µM [8]: 74.7% | viability at 50 µM [8]: 18.4% | IC50 [9]: 59.02 ± 0.02 µM
